Results published in PubChem BioAssay (NCI).
Values joined by “and” are separate entries in the source; they are usually repeats but may differ in a detail not shown here. Identical values can stand only once.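 Each compound was tested at five concentrations against cells in 96-well plates for 48 hours. GI50 = concentration required for 50% inhibition of growth. At the TGI there is no net growth.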

Tests used:
Experiment in all cases: NCI tumour cell line growth inhibition, 48 h
EKVX NSCLC = test system: EKVX NSCLC
HT29 colon = test system: HT29 colon
K-562 leukemia = test system: K-562 leukemia
OVCAR-5 ovarian = test system: OVCAR-5 ovarian
RPMI-8226 leukemia = test system: RPMI-8226 leukemia
SW-620 colon = test system: SW-620 colon
T-47D breast = test system: T-47D breast
UACC-257 melanoma = test system: UACC-257 melanoma

SMILES	GI50 (EKVX NSCLC) [µM]	TGI (EKVX NSCLC)	GI50 (HT29 colon)	TGI (HT29 colon) [µM]	GI50 (K-562 leukemia) [µM]	TGI (K-562 leukemia) [µM]	GI50 (OVCAR-5 ovarian) [µM]	TGI (OVCAR-5 ovarian) [µM]	GI50 (RPMI-8226 leukemia) [µM]	TGI (RPMI-8226 leukemia)	GI50 (SW-620 colon) [µM]	TGI (SW-620 colon) [µM]	GI50 (T-47D breast) [µM]	TGI (T-47D breast) [µM]	GI50 (UACC-257 melanoma)	TGI (UACC-257 melanoma)
Cc1cc(O)c(C2=NN(c3ccc(S(N)(=O)=O)cc3)C(/C=C/c3ccccc3)C2)cc1Cl (stereo unspecified)	14.2	35.3 µM	3.73 µM	14.7	11.6	87.5	3.18	14.7	4.95	20.6 µM	11.7	31.3	3.38	14.7	14.5 µM	45.7 µM
Cc1nc2ccccc2nc1N=Nc1ccccc1	10.9	> 100 µM	0.193 µM	15.1	25.7	> 100	75.7	> 100	12.2	42.8 µM	–	–	10.1	67.7	25.2 µM	73.4 µM
C/C(=N\NC(=S)N1CCCCCC1)c1cccc2cccnc12	–	> 75.3 µM	–	19.1	–	> 100	–	> 100	–	15.3 µM	–	> 100	–	70.9	–	> 31.1 µM
CCCCCCNCc1cc(C(C)(C)C)cc(CNCCCCCC)c1O	1.55	2.96 µM	1.75 µM	3.24	1.3	3.04	1.54	2.88	1.96	4.05 µM	1.66	3.1	1.65	3.29	1.67 µM	3.13 µM
COC(=O)C(C(=O)OC)C(Br)C(Br)C(Br)c1ccccc1 (stereo unspecified)	–	–	5.68 µM	21.8	–	–	19.9	37.5	2.68	7.8 µM	3.29	11.4	2.03	4.92	2.34 µM	11 µM
CN1CCN(c2nc(-c3csc(-c4cccs4)n3)cc3ccccc23)CC1	1.58	3.34 µM	1.66 µM	3.41	2.16	4.92	1.66	3.13	2.09	4.98 µM	1.75	3.25	1.85	4.56	1.87 µM	3.68 µM
COc1ccc(C(=O)c2sc3nc(-c4cccs4)ccc3c2N)cc1OC	–	–	3.65 µM	17.4	2.1	> 100	19.8	> 100	5.45	> 100 µM	5.07	> 100	–	–	8.51 µM	> 100 µM
Nc1nc(N)c2nc3c(nc2n1)CCCCCCCCCC3	–	–	–	–	0.43	> 100	1.75	> 100	> 100	> 100 µM	0.553	> 100	> 100	> 100	2.4 µM	> 100 µM
CCC(C)C(=O)OCC(=O)c1ccc(-c2ccccc2)cc1 (stereo unspecified)	–	84.4 µM	–	> 100	–	> 100	–	> 100	–	71.5 µM	–	> 100	–	> 100	–	87.4 µM
CC(=O)/C=C/c1ccc(OCc2ccc(Cl)cc2)cc1	298	> 1000 µM	> 1000 µM	> 1000	–	–	> 1000	> 1000	237	> 1000 µM	> 1000	> 1000	182	> 1000	274 µM	> 1000 µM
O=[N+]([O-])c1cc([N+](=O)[O-])c(Cl)cc1Cl	1.68	3.31 µM	–	–	0.249	0.642	1.78	3.6	0.667	2.8 µM	–	–	1.71	4.42	0.594 µM	2.04 µM
O=C1c2cccnc2C(=O)c2c1c(C(=O)OCCCN1CCCCC1)c1ccccn21	0.0351	0.253 µM	0.0295 µM	0.665	< 0.0144	–	0.0344	1.83	0.0609	–	< 0.01	< 0.0192	1.1	21.5	< 0.01 µM	0.0549 µM
CN(CCCCCl)P(=O)(OCc1ccc([N+](=O)[O-])o1)OCC1OC(n2cnc([N+](=O)[O-])c2N)C(O)C1O (stereo unspecified)	> 100	> 100 µM	> 100 µM	> 100	> 100	> 100	> 100	> 100	> 100	> 100 µM	> 100	> 100	–	–	> 100 µM	> 100 µM
CCCCOC1OC(COC(=O)C(C)C)C(OC(=O)C(C)C)C(O)C1OC1OC(C)C(OC(=O)CCC)C(OC(=O)C(C)C)C1O (stereo unspecified)	12.5	25.2 µM	9.33 µM	22.5	3.09	14.3	12.7	25.2	2.27	8.95 µM	14.7	27.8	15	35.3	18.5 µM	32.5 µM
CCc1nc(N)nc(N)c1-c1ccc(Cl)c(N=[N+]=[N-])c1	–	> 100 µM and 99.8 µM	1.32 µM and 3.06 µM	> 85.4	–	> 54.8	–	> 100	–	39.2 µM and 52.1 µM	–	> 100	–	> 96.2	1.58 µM and 12.9 µM	40 µM and > 92.7 µM
NC1(Cc2ccc(Cl)cc2)CCN(c2ncnc3[nH]ccc23)CC1	2.69	18.5 µM	3.7 µM	17.8	4.66	19.4	8.33	43.6	4.37	26.5 µM	4.59	20.4	1.59	14.7	13.1 µM	26.5 µM
CC(C)(C)OC(=O)NCc1cccc(N=C=S)c1	23.4	61 µM	23.2 µM	54	28.4	> 88.2	20.6	74.9	17.2	56.7 µM	18.9	47.7	16.5	36.6	21.7 µM	54.4 µM
